# Legend:
# [1] = tested on: patients with metastatic PDAC; set-up: method as in PMID 24131140; settings: MPACT phase III; cited from earlier work
# PANC-1-Pac cells = experiment: MTT cell viability and ZIP synergy in paclitaxel-resistant PANC-1-Pac cells; type: cell-based, human; settings: for ZIP synergy score with paclitaxel: PANC-1-Pac cells, score above 10 indicates synergy
# From the text: A paclitaxel-sensitive human PDAC cell line, PANC-1, was obtained (ATCC, CRL-1469) and the derived paclitaxel-resistant PANC-1-Pac cell line was established by gradually increasing concentrations of paclitaxel over a period of 2–4 months. Standard MTT and crystal violet assays were applied to evaluate the effect of treatment with either combinations of SCO-101 and paclitaxel or SRPK1-inhibitor and paclitaxel. Details are presented in the Online Resource.
# Statistical analyses were mainly descriptive and included mean, median, range, and 95% CIs. Kaplan–Meier plots were constructed using Stata version 18 (StataCorp, 2023). In the preclinical study, the zero interaction potency (ZIP) synergy score was calculated as described by Yadav et al., to quantify the deviation from the expectation of zero interaction between drugs. A ZIP synergy score above 10 indicates synergy.
# A paclitaxel-sensitive human PDAC cell line PANC-1 was obtained (ATCC, CRL-1469) and the derived paclitaxel-resistant PANC-1-Pac cell line was established by gradually increasing concentrations of paclitaxel over a period of 2-4 months. Standard MTT and crystal violet assays were applied to evaluate the effect of treatment with either combinations of SCO-101/paclitaxel or SRPK1 inhibitor/paclitaxel.
# The selection began at 1 nM, increased to 2 nM and 4 nM, and ended at 8 nM. For each drug concentration the cells were kept for three passages. To evaluate the effect of the treatment either a Crystal Violet assay or MTT (3-(4,5-dimethylthiazol-2-yl)-2,5-diphenyltetrazolium bromide) assay were applied.
# The MTT was conducted according to standard conditions. In short, cells were seeded at a density of 7,000 cells/well into a 96-well. One day after seeding, the cells were experimentally treated. Control conditions consisted of either growth medium (‘untreated’) or DMSO diluted in growth medium. All treatments were performed in triplicates. The cells were then kept in the CO2 incubator at 37 °C for 72 hours and plates were incubated with 100μl 1:10 MTT (0.5 mg/ml dissolved in phosphate buffered saline) for 3 hours and hereafter stopped using 100μl/well stop buffer (50g Sodium Dodecyl Sulphate, 245 mL MiliQ H2O, 5mL 1.0 N HCl was added to dissolve the formazan crystals overnight. Optical densities were measured at 570 and 670 nm.
# Experiments with 4 different concentrations of either SCO-101 or paclitaxel and their combinations were applied to test for synergy among these two compounds in both the PANC-1 parental and -Paclitaxel resistant cells. SCO-101 was applied in 10, 20, 40 and 50 µM whereas paclitaxel was tested in 5, 10, 15 and 20 nM for a total of 144 h, where drug was only present in the first 72h (sFig 2). The SRPK1 inhibitor SPHINX31 was tested at 0.1; 0.5; 1 and 5 µM. The SRPK1 inhibitor SRPIN was tested at 1; 5; 10 and 50 µM. Both inhibitors were tested in combination with 5, 10, 15 and 20 nM Paclitaxel.
# PANC-1-Pac cells treated with paclitaxel and SRPIN340 with four different concentrations of each for a total of 144 hours. Cell viability was evaluated by MTT assays and reported as percentage of untreated control (medium). Error bars indicate percentage standard deviation.
# PDAC patients [2] = tested on: PDAC patients; set-up: method as in PMID 16034525; settings: clinical phase II study; cited from earlier work
# PDAC patients [3] = tested on: PDAC patients; set-up: method as in PMID 20107864; settings: phase II trial; cited from earlier work
smiles,measurement,setting,value
"Nc1ccn([C@@H]2O[C@H](CO)[C@@H](O)C2(F)F)c(=O)n1 [Gem, gemcitabine]",median overall survival (mOS),[1],6.7 months
same,objective response rate (ORR),[1],7%
O=C(Nc1cc(C(F)(F)F)ccc1N1CCN(Cc2ccccn2)CC1)c1ccc(-c2ccncc2)o1 [SPHINX31],ZIP synergy score with paclitaxel,PANC-1-Pac cells; SPHINX31 + paclitaxel for 144 h,57.037
O=C(Nc1cc(C(F)(F)F)ccc1N1CCCCC1)c1ccncc1 [SRPIN340],ZIP synergy score with paclitaxel,"PANC-1-Pac cells; SRPIN340 + paclitaxel, 72 h with drug + 72 h fresh media",21.4
Cc1ccc(-c2cc(C(F)(F)F)nn2-c2ccc(S(N)(=O)=O)cc2)cc1 [celecoxib],effect when combined with Gem and cisplatin,PDAC patients [2],no apparent effect
O=c1c(-c2ccc(O)cc2)coc2cc(O)cc(O)c12 [genistein],effect when added to erlotinib and Gem,PDAC patients [3],no clear effect on survival
CC(=O)O[C@H]1C(=O)[C@@]2(C)[C@H]([C@H](OC(=O)c3ccccc3)[C@]3(O)C[C@H](OC(=O)[C@H](O)[C@@H](NC(=O)c4ccccc4)c4ccccc4)C(C)=C1C3(C)C)[C@]1(OC(C)=O)CO[C@@H]1C[C@@H]2O [paclitaxel],"effect on PANC-1-Pac cells (cell viability), drug alone",PANC-1-Pac cells; 72 h with drug + 72 h fresh media,dose-dependent effect
same,resistant phenotype to paclitaxel relative to parental PANC-1 control cell line,"PANC-1-Pac cells; PANC-1-Pac vs PANC-1, MTT, 72 hours",five times higher

# From article PMC12048447, “PANTAX: a phase Ib clinical trial of the efflux pump inhibitor SCO-101 in combination with gemcitabine and nab-paclitaxel in non-resectable or metastatic pancreatic cancer” (Investigational New Drugs, 2025)
